Here are results for one compound from PMC5218480 (PLoS ONE, 2017).

This assay relates to MV-4-11 cells. As to the kind of experiment: Gene expression microarray analysis (Affymetrix PrimeView) and GSEA. The assay is classed as cell-based, human. As to conditions: MV-4-11 cells, 48 hours. Further details: RFU PODN (11730768_x_at) / Fold change /veh PODN (11730768_x_at) / RFU LINC00158 (11744669_a_at) / Fold change /veh LINC00158 (11744669_a_at) / RFU DUSP10 (11751237_a_at) / Fold change /veh DUSP10 (11751237_a_at) / RFU ID3 (11757404_x_at) / Fold change /veh ID3 (11757404_x_at) / RFU PLEKHG5 (11737974_s_at) / Fold change /veh PLEKHG5 (11737974_s_at) / RFU LRRC4B (11730491_at) / Fold change /veh LRRC4B (11730491_at) / RFU GIMAP4 (11747438_a_at) / Fold change /veh GIMAP4 (11747438_a_at) / RFU KRT8 (11758183_x_at) / Fold change /veh KRT8 (11758183_x_at) / RFU CNN1 (11734310_a_at) / Fold change /veh CNN1 (11734310_a_at) / RFU VPS37D (11726825_at) / Fold change /veh VPS37D (11726825_at) / RFU C10orf10 (11716522_x_at) / Fold change /veh C10orf10 (11716522_x_at) / RFU KIR2DL2 /// KIR2DL4 /// KIR2DL5A /// KIR2DL5B /// KIR2DS1 /// KIR2DS2 /// KIR2DS3 /// KIR2DS4 /// KIR3DL3 /// KIR3DL3 /// KIR3DS1 (11738374_at) / Fold change /veh KIR2DL2 /// KIR2DL4 /// KIR2DL5A /// KIR2DL5B /// KIR2DS1 /// KIR2DS2 /// KIR2DS3 /// KIR2DS4 /// KIR3DL3 /// KIR3DL3 /// KIR3DS1 (11738374_at) / RFU C1QL1 (11718748_at) / Fold change /veh C1QL1 (11718748_at) / RFU TMPRSS4 (11747572_a_at) / Fold change /veh TMPRSS4 (11747572_a_at) / RFU HAMP (11756126_x_at) / Fold change /veh HAMP (11756126_x_at) / RFU RNFT2 (11725882_a_at) / Fold change /veh RNFT2 (11725882_a_at) / RFU NR4A2 (11747474_a_at) / Fold change /veh NR4A2 (11747474_a_at) / RFU ABCC12 (11746883_a_at) / Fold change /veh ABCC12 (11746883_a_at) / RFU TMEM136 (11760407_x_at) / Fold change /veh TMEM136 (11760407_x_at) / RFU CLDN22 /// WWC2 (11732394_at) / Fold change /veh CLDN22 /// WWC2 (11732394_at) / RFU HLA-DPB1 (11760878_x_at) / Fold change /veh HLA-DPB1 (11760878_x_at) / RFU SPINT1 (11716480_a_at) / Fold change /veh SPINT1 (11716480_a_at) / RFU GAP43 (11754022_s_at) / Fold change /veh GAP43 (11754022_s_at) / RFU A4GNT (11735810_at) / Fold change /veh A4GNT (11735810_at) / RFU PRB3 (11715151_x_at) / Fold change /veh PRB3 (11715151_x_at) / RFU TUBB4B (11761932_at) / Fold change /veh TUBB4B (11761932_at) / RFU CAPN14 (11732068_a_at) / Fold change /veh CAPN14 (11732068_a_at) / RFU TMCC2 (11721928_a_at) / Fold change /veh TMCC2 (11721928_a_at) / RFU IRGQ (11745062_a_at) / Fold change /veh IRGQ (11745062_a_at) / RFU FAM174B (11720279_a_at) / Fold change /veh FAM174B (11720279_a_at) / RFU TMPRSS4 (11748680_a_at) / Fold change /veh TMPRSS4 (11748680_a_at) / RFU FAM212B (11763350_a_at) / Fold change /veh FAM212B (11763350_a_at) / RFU PLEKHG5 (11743358_a_at) / Fold change /veh PLEKHG5 (11743358_a_at) / RFU ZSCAN30 (11745921_a_at) / Fold change /veh ZSCAN30 (11745921_a_at) / RFU CMKLR1 (11741424_a_at) / Fold change /veh CMKLR1 (11741424_a_at) / RFU LOC101060620 /// MAPK8IP1 (11723275_at) / Fold change /veh LOC101060620 /// MAPK8IP1 (11723275_at) / RFU SPTSSB (11747773_x_at) / Fold change /veh SPTSSB (11747773_x_at) / RFU PRSS12 (11739890_at) / Fold change /veh PRSS12 (11739890_at) / RFU BIN1 (11741810_x_at) / Fold change /veh BIN1 (11741810_x_at) / RFU WNT11 (11732464_a_at) / Fold change /veh WNT11 (11732464_a_at) / RFU C10orf10 (11716521_a_at) / Fold change /veh C10orf10 (11716521_a_at) / RFU C5orf56 (11738089_at) / Fold change /veh C5orf56 (11738089_at) / RFU CYB561 (11721691_x_at) / Fold change /veh CYB561 (11721691_x_at) / RFU ANKRD19P (11752326_a_at) / Fold change /veh ANKRD19P (11752326_a_at) / RFU OR2T12 /// OR2T33 /// OR2T8 (11738714_s_at) / Fold change /veh OR2T12 /// OR2T33 /// OR2T8 (11738714_s_at) / RFU VCAN (11748164_a_at) / Fold change /veh VCAN (11748164_a_at) / RFU JSRP1 (11732532_at) / Fold change /veh JSRP1 (11732532_at) / RFU KRTAP10-11 (11738290_x_at) / Fold change /veh KRTAP10-11 (11738290_x_at) / RFU MYO3A (11730013_a_at) / Fold change /veh MYO3A (11730013_a_at) / RFU EBF3 (11725865_a_at) / Fold change /veh EBF3 (11725865_a_at) / RFU CAMK2N1 (11719241_x_at) / Fold change /veh CAMK2N1 (11719241_x_at) / RFU C5orf56 (11738088_a_at) / Fold change /veh C5orf56 (11738088_a_at) / RFU OLFML3 (11715873_a_at) / Fold change /veh OLFML3 (11715873_a_at) / RFU LOC100653217 /// NTM (11731650_a_at) / Fold change /veh LOC100653217 /// NTM (11731650_a_at) / RFU MAPK11 (11762145_a_at) / Fold change /veh MAPK11 (11762145_a_at) / RFU FIZ1 (11724087_x_at) / Fold change /veh FIZ1 (11724087_x_at) / RFU OASL (11726364_x_at) / Fold change /veh OASL (11726364_x_at) / RFU SOX15 (11748057_x_at) / Fold change /veh SOX15 (11748057_x_at) / RFU CD79A (11719716_a_at) / Fold change /veh CD79A (11719716_a_at) / RFU HIST1H1D (11736915_at) / Fold change /veh HIST1H1D (11736915_at) / RFU CASKIN2 (11723855_a_at) / Fold change /veh CASKIN2 (11723855_a_at) / RFU LOC730098 (11760151_x_at) / Fold change /veh LOC730098 (11760151_x_at) / RFU OR4N2 (11742367_at) / Fold change /veh OR4N2 (11742367_at) / RFU PRRT2 (11749266_a_at) / Fold change /veh PRRT2 (11749266_a_at) / RFU SNX32 (11753110_a_at) / Fold change /veh SNX32 (11753110_a_at) / RFU CDHR5 (11726645_a_at) / Fold change /veh CDHR5 (11726645_a_at) / RFU RCAN1 (11760418_a_at) / Fold change /veh RCAN1 (11760418_a_at) / RFU FAM167A (11723789_a_at) / Fold change /veh FAM167A (11723789_a_at) / RFU FAM26E (11764081_at) / Fold change /veh FAM26E (11764081_at) / RFU ISYNA1 (11749810_s_at) / Fold change /veh ISYNA1 (11749810_s_at) / RFU ACY1 (11761880_at) / Fold change /veh ACY1 (11761880_at) / RFU 11764098_at / Fold change /veh 11764098_at / RFU SAMD14 (11745864_x_at) / Fold change /veh SAMD14 (11745864_x_at) / RFU NPB (11741838_a_at) / Fold change /veh NPB (11741838_a_at) / RFU TMPRSS6 (11731388_a_at) / Fold change /veh TMPRSS6 (11731388_a_at) / RFU KRTAP10-2 (11738614_at) / Fold change /veh KRTAP10-2 (11738614_at) / RFU ARHGAP8 /// PRR5-ARHGAP8 (11727945_x_at) / Fold change /veh ARHGAP8 /// PRR5-ARHGAP8 (11727945_x_at) / RFU KRTAP5-7 /// NADSYN1 (11734609_at) / Fold change /veh KRTAP5-7 /// NADSYN1 (11734609_at) / RFU RASL12 (11751679_a_at) / Fold change /veh RASL12 (11751679_a_at) / RFU CDKN2B (11736163_a_at) / Fold change /veh CDKN2B (11736163_a_at) / RFU PRF1 (11729649_at) / Fold change /veh PRF1 (11729649_at) / RFU, ZNF638 /// ZNF638-IT1 / Fold change vs veh, ZNF638 /// ZNF638-IT1 / RFU, PANK3 / Fold change vs veh, PANK3 / RFU, SH3YL1 / Fold change vs veh, SH3YL1 / RFU, ZEB2 / Fold change vs veh, ZEB2 / RFU, NRIP1 / Fold change vs veh, NRIP1 / RFU, PTTG1IP / Fold change vs veh, PTTG1IP / RFU, CAPN2 / Fold change vs veh, CAPN2 / RFU, MED14 / Fold change vs veh, MED14 / RFU, SNORA58 / Fold change vs veh, SNORA58 / RFU, C1orf63 / Fold change vs veh, C1orf63 / RFU, LRRFIP1 / Fold change vs veh, LRRFIP1 / RFU, NDUFAF7 / Fold change vs veh, NDUFAF7 / RFU, SLC12A2 / Fold change vs veh, SLC12A2 / RFU, IBTK / Fold change vs veh, IBTK / RFU, ESF1 / Fold change vs veh, ESF1 / Fold change vs veh, TMEM50B / RFU, TAOK1 / Fold change vs veh, TAOK1 / RFU, ACBD3 / Fold change vs veh, ACBD3 / RFU, TMA16 / Fold change vs veh, TMA16 / RFU, RWDD3 / Fold change vs veh, RWDD3 / RFU, BCAT1 / Fold change vs veh, BCAT1 / RFU, EDEM3 / Fold change vs veh, EDEM3 / RFU, TMEM33 / Fold change vs veh, TMEM33 / RFU, WDR75 / Fold change vs veh, WDR75 / RFU, AHCTF1 / Fold change vs veh, AHCTF1 / RFU, TFRC / Fold change vs veh, TFRC / RFU, ZDHHC17 / Fold change vs veh, ZDHHC17 / RFU, NOM1 / Fold change vs veh, NOM1 / RFU, ARL8B / Fold change vs veh, ARL8B / RFU, ZBTB11 / Fold change vs veh, ZBTB11 / RFU, TAMM41 / Fold change vs veh, TAMM41 / RFU, KIAA1704 /// LOC100996395 / Fold change vs veh, KIAA1704 /// LOC100996395 / RFU, ING1 / Fold change vs veh, ING1 / RFU, TRMT61B / Fold change vs veh, TRMT61B / RFU, FUBP3 / Fold change vs veh, FUBP3 / RFU, TP53 / Fold change vs veh, TP53 / RFU, TNKS2 / Fold change vs veh, TNKS2 / RFU, ZFP14 / Fold change vs veh, ZFP14 / RFU, ACTR2 / Fold change vs veh, ACTR2 / RFU, PPP3R1 / Fold change vs veh, PPP3R1 / RFU, PIK3R1 / Fold change vs veh, PIK3R1 / RFU, HNRNPA1 / Fold change vs veh, HNRNPA1 / RFU, RNF170 / Fold change vs veh, RNF170 / RFU, ZNF28 / Fold change vs veh, ZNF28 / RFU, RNGTT / Fold change vs veh, RNGTT / RFU, OGT / Fold change vs veh, OGT / RFU, BRD1 / Fold change vs veh, BRD1 / RFU, MARS / Fold change vs veh, MARS / RFU, ZNF655 / Fold change vs veh, ZNF655 / RFU, FAHD1 / Fold change vs veh, FAHD1 / RFU, BDP1 / Fold change vs veh, BDP1 / RFU, LRRCC1 / Fold change vs veh, LRRCC1 / RFU, ARID1A / Fold change vs veh, ARID1A / RFU, ZNF146 / Fold change vs veh, ZNF146 / RFU, ZNF330 / Fold change vs veh, ZNF330 / RFU, GPN3 / Fold change vs veh, GPN3 / RFU, C9orf123 / Fold change vs veh, C9orf123 / RFU, N4BP2L2 / Fold change vs veh, N4BP2L2 / RFU, ARFIP1 / Fold change vs veh, ARFIP1 / RFU, FAM179B / Fold change vs veh, FAM179B / RFU, BCL10 / Fold change vs veh, BCL10 / RFU, UHRF1BP1L / Fold change vs veh, UHRF1BP1L / RFU, BET1 / Fold change vs veh, BET1 / RFU, CNOT2 / Fold change vs veh, CNOT2 / RFU, ZNF268 / Fold change vs veh, ZNF268 / Fold change vs veh, ZNF507 / RFU, DGCR2 / Fold change vs veh, DGCR2 / RFU, WDSUB1 / Fold change vs veh, WDSUB1 / Fold change vs veh, HSP90B1 /// MIR3652 / RFU, ADSS / Fold change vs veh, ADSS / RFU, GK / Fold change vs veh, GK / RFU, ZNF148 / Fold change vs veh, ZNF148 / RFU, TAF9 / Fold change vs veh, TAF9 / RFU, SLC1A5 / Fold change vs veh, SLC1A5 / RFU, SLMO2 / Fold change vs veh, SLMO2 / RFU, ABCC4 / Fold change vs veh, ABCC4 / RFU, LOC101060439 /// RAP1B / Fold change vs veh, LOC101060439 /// RAP1B / RFU, RFX7 / Fold change vs veh, RFX7 / RFU, GTPBP10 / Fold change vs veh, GTPBP10 / RFU, CNEP1R1 / Fold change vs veh, CNEP1R1 / RFU, BIVM-ERCC5 /// ERCC5 / Fold change vs veh, BIVM-ERCC5 /// ERCC5 / RFU, ILF3 / Fold change vs veh, ILF3 / RFU 11762660_at / Fold change /veh 11762660_at / RFU VCAN (11757783_s_at) / Fold change /veh VCAN (11757783_s_at) / RFU DDX43 (11728927_at) / Fold change /veh DDX43 (11728927_at) / RFU KRT8 (11758188_x_at) / Fold change /veh KRT8 (11758188_x_at) / RFU NKD1 (11759106_at) / Fold change /veh NKD1 (11759106_at) / RFU SRD5A1 (11742802_a_at) / Fold change /veh SRD5A1 (11742802_a_at) / RFU TPSAB1 /// TPSB2 (11721975_s_at) / Fold change /veh TPSAB1 /// TPSB2 (11721975_s_at) / RFU GSTM3 (11746129_a_at) / Fold change /veh GSTM3 (11746129_a_at) / RFU IL23R (11737362_x_at) / Fold change /veh IL23R (11737362_x_at) / RFU TMEM51 (11727254_a_at) / Fold change /veh TMEM51 (11727254_a_at) / RFU PIWIL2 (11732686_x_at) / Fold change /veh PIWIL2 (11732686_x_at) / RFU ORM1 (11744905_x_at) / Fold change /veh ORM1 (11744905_x_at) / RFU CCDC152 (11743942_at) / Fold change /veh CCDC152 (11743942_at) / RFU ECM1 (11717891_a_at) / Fold change /veh ECM1 (11717891_a_at) / RFU IL23R (11748794_a_at) / Fold change /veh IL23R (11748794_a_at) / RFU TNFAIP8L3 (11732012_x_at) / Fold change /veh TNFAIP8L3 (11732012_x_at) / RFU MBOAT4 (11741988_at) / Fold change /veh MBOAT4 (11741988_at) / RFU 11764193_at / Fold change /veh 11764193_at / RFU TMEM53 (11763286_at) / Fold change /veh TMEM53 (11763286_at) / RFU MAGEB2 (11727129_at) / Fold change /veh MAGEB2 (11727129_at) / RFU TMEM200A (11744735_a_at) / Fold change /veh TMEM200A (11744735_a_at) / RFU CCDC152 (11751479_a_at) / Fold change /veh CCDC152 (11751479_a_at) / RFU FAM211A (11726209_a_at) / Fold change /veh FAM211A (11726209_a_at) / RFU RGS16 (11746705_a_at) / Fold change /veh RGS16 (11746705_a_at) / RFU VCAN (11755009_s_at) / Fold change /veh VCAN (11755009_s_at) / RFU RHOB (11743442_s_at) / Fold change /veh RHOB (11743442_s_at) / RFU RGS16 (11720943_a_at) / Fold change /veh RGS16 (11720943_a_at) / RFU RGS16 (11720944_at) / Fold change /veh RGS16 (11720944_at) / RFU, VPS4B / Fold change vs veh, VPS4B / RFU, CREB1 / Fold change vs veh, CREB1 / RFU, DNAJC13 / Fold change vs veh, DNAJC13 / RFU, GNAQ / Fold change vs veh, GNAQ / RFU, CDK5R1 / Fold change vs veh, CDK5R1 / RFU, ZRANB3 / Fold change vs veh, ZRANB3 / RFU, CUL4A / Fold change vs veh, CUL4A / RFU, CCNY / Fold change vs veh, CCNY / RFU, UFL1 / Fold change vs veh, UFL1 / RFU, COG3 / Fold change vs veh, COG3 / RFU, DIAPH2 / Fold change vs veh, DIAPH2 / RFU, SKA2 / Fold change vs veh, SKA2 / RFU, AFF3 / Fold change vs veh, AFF3 / RFU, LMF1 / Fold change vs veh, LMF1 / RFU, IPO11 / Fold change vs veh, IPO11 / RFU, DFFB / Fold change vs veh, DFFB / RFU, FOXP1 / Fold change vs veh, FOXP1 / RFU, CARD8 / Fold change vs veh, CARD8 / RFU, STRN3 / Fold change vs veh, STRN3 / RFU, ADK / Fold change vs veh, ADK / RFU, RASSF2 / Fold change vs veh, RASSF2 / RFU, WIPF1 / Fold change vs veh, WIPF1 / RFU, LARP1B / Fold change vs veh, LARP1B / RFU, RASA1 / Fold change vs veh, RASA1 / RFU, RB1 / Fold change vs veh, RB1 / RFU, PPFIA1 / Fold change vs veh, PPFIA1 / RFU, MAT2A / Fold change vs veh, MAT2A / RFU, CCT5 / Fold change vs veh, CCT5 / RFU, WDR92 / Fold change vs veh, WDR92 / RFU, CUX1 / Fold change vs veh, CUX1 / RFU, TTC7A / Fold change vs veh, TTC7A / RFU, TMEM135 / Fold change vs veh, TMEM135 / RFU, DEPTOR / Fold change vs veh, DEPTOR / RFU, CPM / Fold change vs veh, CPM / RFU, DNAJB6 / Fold change vs veh, DNAJB6 / RFU, CACNA2D3 / Fold change vs veh, CACNA2D3 / RFU, DTX4 / Fold change vs veh, DTX4 / RFU, TFCP2 / Fold change vs veh, TFCP2 / RFU, GMCL1 /// GMCL1P1 / Fold change vs veh, GMCL1 /// GMCL1P1 / RFU, AEBP2 / Fold change vs veh, AEBP2 / RFU, SNHG1 /// SNORD22 /// SNORD25 /// SNORD26 /// SNORD27 /// SNORD28 /// SNORD29 /// SNORD31 / Fold change vs veh, SNHG1 /// SNORD22 /// SNORD25 /// SNORD26 /// SNORD27 /// SNORD28 /// SNORD29 /// SNORD31 / Fold change (Aza/veh), C12orf56 (ProbeSet 11735607_a_at) / Fold change (ACY-1035/veh), C12orf56 (ProbeSet 11735607_a_at) / Fold change (Aza/veh), FGFR1OP (ProbeSet 11751329_s_at) / Fold change (ACY-1035/veh), FGFR1OP (ProbeSet 11751329_s_at) / Fold change (Aza/veh), VPS36 (ProbeSet 11739960_a_at) / Fold change (ACY-1035/veh), VPS36 (ProbeSet 11739960_a_at) / RFU SYPL1 (11715823_x_at) / Fold change /veh SYPL1 (11715823_x_at) / RFU IGFBP7 (11715501_s_at) / Fold change /veh IGFBP7 (11715501_s_at) / RFU REEP3 (11722064_at) / Fold change /veh REEP3 (11722064_at) / RFU IGLL1 (11728026_x_at) / Fold change /veh IGLL1 (11728026_x_at): dose or concentration left out as unconfirmed.

For the compound `Nc1ncn([C@@H]2O[C@H](CO)[C@@H](O)[C@H]2O)c(=O)n1` [azacitidine], the “RFU SPTSSB (11747773_x_at)” value is 34.53 RFU.
